Key:
[1] = test system: prostate specific antigen (PSA); assay: Blood PSA level of patients treated orally with Accutane; type: in vivo, human
[2] = test system: benign prostatic hyperplasia; assay: Clinical treatment of patients with benign prostatic hyperplasia / benign prostate conditions: symptoms and prostate size; type: in vivo, human
[3] = Side effects observed in the treated patients (informal trials)
Protocol: The treatment method involves essentially two periods: an initial treatment, and a sustaining treatment. First, in the initial treatment the patients orally administrate an initial dosage about 40 mg of 13-cis-retinoic acid daily for a period from about ten days to about twenty days. Thereafter, the patients orally administrate a sustaining dosage about 40 mg of 13-cis-retinoic acid about every five to seven days in a sustaining period. Typically, the sustaining period is about one year. However, it can be extended longer if extended maintenance is needed.
In the initial treatment, 40 mg of 13-cis-retinoic acid can be administrated in a single dose, or divided doses. […] The patients can either take one 40 mg capsule, or take two 20 mg capsules daily. The same applies to the dosage in the sustaining treatment. For convenience, the patients can take one 40 mg dose every five to seven days.
The initial dosage of about 40 mg 13-cis-retinoic acid daily is determined based on average men's body weight of about 160 lbs, i.e. at about 0.25 mg/lb of body weight. For patients who weigh substantially above or less than the average body weight, the dosage described above can be adjusted accordingly. The same principle applies to the sustaining dosage.

[4] = patients of the informal trials

In the case of `CC1=C(/C=C/C(C)=C/C=C/C(C)=C\C(=O)O)C(C)(C)CCC1` [Accutane, 13-cis retinoic acid], the PSA after treatment ([1]; Example 1 patient, PSA 4 before, 40 mg orally for 14 days, then 40 mg every 5 days for about one year) is reported as “less than one”, the PSA after treatment ([1]; Example 2 patient, PSA 3 before, after 6 months, 40 mg for 14 days, then 40 mg every 5 days) is reported as “less than one” and the PSA after treatment ([1]; Example 3 patient, chronic posttraumatic prostatitis, PSA 5 before, 40 mg daily for 14 days, then 40 mg every 5 days) is reported as “less than 1”. For the same compound, the PSA after treatment ([1]; Example 4 patient, PSA 4 before, within 6 months, 40 mg per day for 14 days, then 40 mg every 5 days) was “less than 1”, the symptoms ([2]; Example 1 patient, prostatic enlargement and attenuated urine stream, 40 mg for 14 days, then 40 mg every 5 days) was “improved steadily” and the “palpable size of prostate” value ([2]; Example 1 patient, 40 mg for 14 days, then 40 mg every 5 days) was “decreased in palpable size”. For the same compound, the symptoms ([2]; Example 2 patient, prostatic enlargement, decreasing urine flow, urgency, nocturia) was “steady improvement in symptoms”, the symptoms ([2]; Example 3 patient, chronic prostatitis, after the initial treatment, remained so during the sustaining period) was “rapidly became symptom free” and the symptoms ([2]; Example 4 patient, enlarged prostate, urinary tenesmus) was “readily improved”. The prostate enlargement ([2]; approximately twelve patients, by examination and the patients' own anecdotal comments) was “a reduction in prostate enlargement was confirmed”, the “worsening of condition (PSA or hyperplasia), progression to malignancy” value [2, 4] was “none of the conditions of these patients worsened” and the blood chemistries ([3]; Example 1 patient, on sustaining dosage of 40 mg every 5 days) was “remained normal”. For the same compound, the adverse side effects ([3]; Example 1 patient, soreness subsided slowly after the sustaining dose was instituted) was “drying of lips and some musculo-skeletal soreness at sites of old injuries to the fingers and neck”, the adverse side effects ([3]; Example 2 patient) was “No adverse side effects were observed” and the “serious adverse side effects or contra-indications” value [3, 4] was “no serious adverse side effects or contra-indications of any kind were observed”.
